Test results published in patent EP0414533A1, “Use of iodopropargyl esters of alpha-amino acid derivatives as antimicrobial agents” (ROHM AND HAAS COMPANY, priority 1989, dated 1991).
Values after ≈ are worked out from the molar mass of the structure shown. Read-outs that look alike come from different tables or passages of the source.

Key:
Aspergillus niger (ANIG) = test: Minimum inhibitory concentration (MIC), broth two-fold serial dilution test; assay type: cell-based; details: Aspergillus niger, IIIB, trypticase soy broth (complex media); Table IIIb; read-out: MIC (F) ANIG
COL = test: In-vitro plant fungicide test; assay type: cell-based; details: Table IVb, read-out: % Control at (ppm) indicated COL
[1] = system: Cochliobolus sativus (HEL); test: In-vitro plant fungicide test; assay type: cell-based; details: Bipolaris sorokiniana
MON = test: In-vitro plant fungicide test; assay type: cell-based; details: Table IVb, read-out: % Control at (ppm) indicated MON
[2] = system: Phytophthora capsici (PHY); test: In-vitro plant fungicide test; assay type: cell-based; details: Phytophthora capsici
Piricularia oryzae (PIR) = test: microbe, parasite or virus in culture; assay type: cell-based
Pythium ultimum (PYU) = test: In-vitro plant fungicide test; assay type: cell-based; details: Globisporangium ultimum
Septoria nodorum (SEP) = test: In-vitro plant fungicide test; assay type: cell-based; details: Parastagonospora nodorum
UST = test: In-vitro plant fungicide test; assay type: cell-based; details: Table IVb, read-out: % Control at (ppm) indicated UST
[3] = system: Xanthomonas campestris (XAN); test: In-vitro plant fungicide test; assay type: cell-based; details: Xanthomonas campestris; 25 ppm; Table IVa; read-out: % Control at 25 ppm XAN
8 FUNGI = test: Microbicides secondary test against 8 fungi on Mycophile Agar at pH 5.0 (Table VI); assay type: cell-based; set-up: key: 1= no growth; 0= growth of the indicated fungi at dose indicated in ppm; details: for ANIG growth: Aspergillus niger; for APUL growth: Aureobasidium pullulans; for CGLO growth: Chaetomium globosum; for CRES growth: Cladosporium resinae; for GTRA growth: Gloeophyllum trabeum; for PFUN growth: Penicillium funiculosum; for RRUB growth: Rhodotorula rubra; for SSER growth: Sacharomyces cerevisiae
Excerpt: The results of the minimum inhibitory concentration (MIC) tests of compounds of this invention are shown in Tables IIIa IIIb, IIIc, V, VI, VII, and VIII against the microorganisms shown in Table IX.

THREE FUNGI = test: MIC test against three fungi in Mycophile Broth, pH 5.0, read after 8 days (Table VII); assay type: cell-based; details: 192 h, serial dilutions from 50 ppm, read after 8 days of incubation
[4] = system: Pseudomonas fluorescens (PSFL); test: Minimum inhibitory concentration (MIC), broth two-fold serial dilution test; details: Pseudomonas fluorescens, IIIB, read-out: MIC (G-) PSFL, trypticase soy broth (complex media); Table IIIb
Excerpt: (§1) When the test is ready to be done, each vessel in the dilution series, except the first vessel, contains an equal volume of compound free broth. The first vessel contains twice the volume of broth with the starting concentration of test compound. One half of the broth from the first vessel is transferred to the second vessel. After being mixed, one half the resulting volume is removed from the second vessel and transferred to the third vessel. The entire cycle is repeated sufficiently to give a series of concentrations amounting to 500, 250, 125, 63, 31, 16, 8, and 4 ppm (or 100, 50, 25, 12.5, 6.2, 3.1, 1.6, and 0.8), respectively.
(§2) Each vessel is then inoculated with a cell suspension of the appropriate test organism. Bacteria are grown in broth, fungi on agar slants for a time and at a temperature appropriate to the species being tested, and algae are a mixture of green algae and blue-green bacteria grown in a nutrient media. At the end of the growth period, in the case of bacteria, the broth is vortexed to disperse the cells.
(§3) The vessels are then incubated at the appropriate temperature. After the incubation, the vessels are examined for growth/no growth.

[5] = system: Pseudomonas aerugenosa (PSAE); test: as above; details: Pseudomonas, IIIB, read-out: MIC (G-) PSAE, trypticase soy broth (complex media); Table IIIb
Escherichia coli (ECOL) = test: as above; details: Escherichia coli, IIIB, read-out: MIC (G-) ECOL, trypticase soy broth (complex media); Table IIIb
[6] = system: Staphylococcus aureus (SAUR); test: as above; details: Staphylococcus aureus, IIIB, read-out: MIC (G+) SAUR, trypticase soy broth (complex media); Table IIIb
Excerpt: as §1, §2, §3

Work on `O=C(CN1C(=O)c2ccccc2C1=O)OCC#CI` [Compound 30, N-phthaloylglycine iodopropargyl ester] yielded an MIC (Aspergillus niger (ANIG)) of 0.12 µg/mL (≈ 0.325 µM), an inhibition of growth at 1.5 ppm (COL; 1.5 ppm) of 0% and an inhibition of growth at 3 ppm (COL; 3 ppm) of 0%. The inhibition of growth at 6 ppm (COL; 6 ppm) was 50%, the inhibition of growth at 12 ppm (COL; 12 ppm) was 100% and the inhibition of growth at 25 ppm (COL; 25 ppm) was 100%. The inhibition of growth at 0.2 ppm (COL; .2 ppm) was 0%, the inhibition of growth at 0.4 ppm (COL; .4 ppm) was 0% and the inhibition of growth at 0.8 ppm (COL; .8 ppm) was 0%. For the same compound, the inhibition of growth at 1.5 ppm ([1]; 1.5 ppm, Table IVb, read-out: % Control at (ppm) indicated HEL) was 0%, the inhibition of growth at 6 ppm ([1]; 6 ppm, Table IVb, read-out: % Control at (ppm) indicated HEL) was 100% and the inhibition of growth at 25 ppm ([1]; Table IVa, *=Phytotoxic, read-out: % Control at 25 ppm HEL) was 100%. The inhibition of growth at 25 ppm ([1]; Table IVb, read-out: % Control at (ppm) indicated HEL) was 100%, the inhibition of growth at 0.2 ppm ([1]; .2 ppm, Table IVb, read-out: % Control at (ppm) indicated HEL) was 0% and the inhibition of growth at 0.4 ppm ([1]; .4 ppm, Table IVb, read-out: % Control at (ppm) indicated HEL) was 0%. It also gave an inhibition of growth at 0.8 ppm ([1]; .8 ppm, Table IVb, read-out: % Control at (ppm) indicated HEL) of 0%, an inhibition of growth at 1.5 ppm (MON; 1.5 ppm) of 100% and an inhibition of growth at 6 ppm (MON; 6 ppm) of 100%. It also gave an inhibition of growth at 25 ppm (MON; 25 ppm) of 100%, an inhibition of growth at 0.2 ppm (MON; .2 ppm) of 100% and an inhibition of growth at 0.4 ppm (MON; .4 ppm) of 100%. For the same compound, the inhibition of growth at 0.8 ppm (MON; .8 ppm) was 100%, the inhibition of growth at 1.5 ppm ([2]; 1.5 ppm, Table IVb, read-out: % Control at (ppm) indicated PHY) was 100% and the inhibition of growth at 6 ppm ([2]; 6 ppm, Table IVb, read-out: % Control at (ppm) indicated PHY) was 100%. It also gave an inhibition of growth at 25 ppm ([2]; Table IVa, read-out: % Control at 25 ppm PHY) of 100%, an inhibition of growth at 25 ppm ([2]; Table IVb, read-out: % Control at (ppm) indicated PHY) of 100% and an inhibition of growth at 0.2 ppm ([2]; .2 ppm, Table IVb, read-out: % Control at (ppm) indicated PHY) of 0%. The inhibition of growth at 0.4 ppm ([2]; .4 ppm, Table IVb, read-out: % Control at (ppm) indicated PHY) was 0%, the inhibition of growth at 0.8 ppm ([2]; .8 ppm, Table IVb, read-out: % Control at (ppm) indicated PHY) was 0% and the inhibition of growth at 1.5 ppm (Piricularia oryzae (PIR); 1.5 ppm, read-out: % Control at (ppm) indicated PIR) was 100%. The inhibition of growth at 6 ppm (Piricularia oryzae (PIR); 6 ppm, read-out: % Control at (ppm) indicated PIR) was 100%, the inhibition of growth at 25 ppm (Piricularia oryzae (PIR); 25 ppm, read-out: % Control at (ppm) indicated PIR) was 100% and the inhibition of growth at 0.2 ppm (Piricularia oryzae (PIR); .2 ppm, read-out: % Control at (ppm) indicated PIR) was 0%. For the same compound, the inhibition of growth at 0.4 ppm (Piricularia oryzae (PIR); .4 ppm, read-out: % Control at (ppm) indicated PIR) was 0%, the inhibition of growth at 0.8 ppm (Piricularia oryzae (PIR); .8 ppm, read-out: % Control at (ppm) indicated PIR) was 100% and the inhibition of growth at 25 ppm (Piricularia oryzae (PIR); read-out: % Control at 25 ppm PIR) was 100%. It also gave an inhibition of growth at 1.5 ppm (Pythium ultimum (PYU); 1.5 ppm, Table IVb, read-out: % Control at (ppm) indicated PYU) of 100%, an inhibition of growth at 6 ppm (Pythium ultimum (PYU); 6 ppm, Table IVb, read-out: % Control at (ppm) indicated PYU) of 100% and an inhibition of growth at 25 ppm (Pythium ultimum (PYU); Table IVa, read-out: % Control at 25 ppm PYU) of 100%. The inhibition of growth at 25 ppm (Pythium ultimum (PYU); Table IVb, read-out: % Control at (ppm) indicated PYU) was 100%, the inhibition of growth at 0.2 ppm (Pythium ultimum (PYU); .2 ppm, Table IVb, read-out: % Control at (ppm) indicated PYU) was 100% and the inhibition of growth at 0.4 ppm (Pythium ultimum (PYU); .4 ppm, Table IVb, read-out: % Control at (ppm) indicated PYU) was 100%. The inhibition of growth at 0.8 ppm (Pythium ultimum (PYU); .8 ppm, Table IVb, read-out: % Control at (ppm) indicated PYU) was 100%, the inhibition of growth at 1.5 ppm (Septoria nodorum (SEP); 1.5 ppm, Table IVb, read-out: % Control at (ppm) indicated SEP) was 100% and the inhibition of growth at 6 ppm (Septoria nodorum (SEP); 6 ppm, Table IVb, read-out: % Control at (ppm) indicated SEP) was 100%. For the same compound, the inhibition of growth at 25 ppm (Septoria nodorum (SEP); Table IVa, read-out: % Control at 25 ppm SEP) was 75%, the inhibition of growth at 25 ppm (Septoria nodorum (SEP); Table IVb, read-out: % Control at (ppm) indicated SEP) was 100% and the inhibition of growth at 0.2 ppm (Septoria nodorum (SEP); .2 ppm, Table IVb, read-out: % Control at (ppm) indicated SEP) was 0%. For the same compound, the inhibition of growth at 0.4 ppm (Septoria nodorum (SEP); .4 ppm, Table IVb, read-out: % Control at (ppm) indicated SEP) was 0%, the inhibition of growth at 0.8 ppm (Septoria nodorum (SEP); .8 ppm, Table IVb, read-out: % Control at (ppm) indicated SEP) was 100% and the inhibition of growth at 1.5 ppm (UST; 1.5 ppm) was 0%. It also gave an inhibition of growth at 3 ppm (UST; 3 ppm) of 0%, an inhibition of growth at 6 ppm (UST; 6 ppm) of 0% and an inhibition of growth at 12 ppm (UST; 12 ppm) of 0%. The inhibition of growth at 25 ppm (UST; 25 ppm) was 0%, the inhibition of growth at 0.2 ppm (UST; .2 ppm) was 0% and the inhibition of growth at 0.4 ppm (UST; .4 ppm) was 0%. For the same compound, the inhibition of growth at 0.8 ppm (UST; .8 ppm) was 0%, the inhibition of growth at 25 ppm [3] was 0% and the ANIG growth (8 FUNGI; 0.2 PPM) was 0. It also gave an ANIG growth (8 FUNGI; 1.0 PPM) of 0, an ANIG growth (8 FUNGI; 2.5 PPM) of 0 and an ANIG growth (8 FUNGI; 25 PPM) of 1. For the same compound, the APUL growth (8 FUNGI; 0.2 PPM) was 0, the APUL growth (8 FUNGI; 1.0 PPM) was 0 and the APUL growth (8 FUNGI; 2.5 PPM) was 0. The APUL growth (8 FUNGI; 25 PPM) was 1, the CGLO growth (8 FUNGI; 0.2 PPM) was 0 and the CGLO growth (8 FUNGI; 1.0 PPM) was 0. The CGLO growth (8 FUNGI; 2.5 PPM) was 1, the CGLO growth (8 FUNGI; 25 PPM) was 1 and the CRES growth (8 FUNGI; 0.2 PPM) was 0. For the same compound, the CRES growth (8 FUNGI; 1.0 PPM) was 0, the CRES growth (8 FUNGI; 2.5 PPM) was 0 and the CRES growth (8 FUNGI; 25 PPM) was 1. The GTRA growth (8 FUNGI; 0.2 PPM) was 0, the GTRA growth (8 FUNGI; 1.0 PPM) was 0 and the GTRA growth (8 FUNGI; 2.5 PPM) was 1. The GTRA growth (8 FUNGI; 25 PPM) was 1, the PFUN growth (8 FUNGI; 0.2 PPM) was 0 and the PFUN growth (8 FUNGI; 1.0 PPM) was 0. The PFUN growth (8 FUNGI; 2.5 PPM) was 0, the PFUN growth (8 FUNGI; 25 PPM) was 1 and the RRUB growth (8 FUNGI; 0.2 PPM) was 0. The RRUB growth (8 FUNGI; 1.0 PPM) was 0, the RRUB growth (8 FUNGI; 2.5 PPM) was 0 and the RRUB growth (8 FUNGI; 25 PPM) was 1. The SSER growth (8 FUNGI; 0.2 PPM) was 0, the SSER growth (8 FUNGI; 1.0 PPM) was 0 and the SSER growth (8 FUNGI; 2.5 PPM) was 1. It also gave an SSER growth (8 FUNGI; 25 PPM) of 1, an MIC (THREE FUNGI; Aspergillus niger, read-out: MIC ANIG) of 12.5 µg/mL (≈ 33.9 µM) and an MIC (THREE FUNGI; Aureobasidium pullulans, read-out: MIC APUL) of 50 µg/mL (≈ 135 µM). For the same compound, the MIC (THREE FUNGI; Gloeophyllum trabeum, read-out: MIC GTRA) was 6.2 µg/mL (≈ 16.8 µM), the MIC [4] was over 250 µg/mL and the MIC [5] was over 250 µg/mL. For the same compound, the MIC (Escherichia coli (ECOL)) was over 250 µg/mL and the MIC [6] was over 250 µg/mL.
